Source: US9365574B2, “Soluble guanylate cyclase activators” (Merck Sharp & Dohme Corp., priority 2010, dated 2016)

Key:
sGC = target: T1, sGC (Homo sapiens, UniProt Q02108+Q02153); assay: Cell-based sGC Functional Assay (CASA Assay), cGMP generation in CHO-K1/sGC cells; details: without ODQ incubation
T1 construct: expressed in transfected cells; host or cells: CHO-K1 (clone #7, CHO-K1/sGC)
T1 sequence (Q02108 1-690): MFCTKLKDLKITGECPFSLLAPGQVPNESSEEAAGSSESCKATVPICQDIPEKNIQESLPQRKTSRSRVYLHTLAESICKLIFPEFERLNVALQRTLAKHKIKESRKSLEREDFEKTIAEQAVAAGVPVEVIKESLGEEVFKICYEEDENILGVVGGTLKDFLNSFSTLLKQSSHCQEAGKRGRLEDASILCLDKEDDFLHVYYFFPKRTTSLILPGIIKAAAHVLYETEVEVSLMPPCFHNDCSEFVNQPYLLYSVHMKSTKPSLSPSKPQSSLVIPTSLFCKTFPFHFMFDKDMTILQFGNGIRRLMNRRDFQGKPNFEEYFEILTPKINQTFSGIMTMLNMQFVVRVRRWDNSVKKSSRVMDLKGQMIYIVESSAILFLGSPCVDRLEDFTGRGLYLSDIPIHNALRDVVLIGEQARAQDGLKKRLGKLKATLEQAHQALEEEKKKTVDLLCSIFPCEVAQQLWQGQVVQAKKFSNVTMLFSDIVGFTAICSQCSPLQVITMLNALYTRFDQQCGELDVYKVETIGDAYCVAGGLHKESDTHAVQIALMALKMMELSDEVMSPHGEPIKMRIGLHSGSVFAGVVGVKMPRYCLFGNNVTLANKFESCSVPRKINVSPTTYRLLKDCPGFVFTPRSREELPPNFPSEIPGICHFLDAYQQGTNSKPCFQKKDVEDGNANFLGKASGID
T1 sequence (Q02153 1-619): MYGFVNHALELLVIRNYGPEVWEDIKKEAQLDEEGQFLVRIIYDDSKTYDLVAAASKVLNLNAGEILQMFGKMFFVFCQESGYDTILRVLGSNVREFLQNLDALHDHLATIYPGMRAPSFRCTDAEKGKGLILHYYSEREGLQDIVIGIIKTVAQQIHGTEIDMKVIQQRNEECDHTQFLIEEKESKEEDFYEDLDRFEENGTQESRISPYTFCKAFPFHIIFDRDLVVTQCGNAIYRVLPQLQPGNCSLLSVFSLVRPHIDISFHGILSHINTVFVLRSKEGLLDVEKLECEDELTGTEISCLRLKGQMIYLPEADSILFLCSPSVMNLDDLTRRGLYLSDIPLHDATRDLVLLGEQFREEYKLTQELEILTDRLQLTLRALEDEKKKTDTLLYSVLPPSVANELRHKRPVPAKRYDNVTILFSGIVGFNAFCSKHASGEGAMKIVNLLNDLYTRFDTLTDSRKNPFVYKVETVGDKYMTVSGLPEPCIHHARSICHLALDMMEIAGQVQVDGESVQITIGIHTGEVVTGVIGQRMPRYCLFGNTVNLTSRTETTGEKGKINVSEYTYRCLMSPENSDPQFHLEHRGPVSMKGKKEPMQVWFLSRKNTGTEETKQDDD
Text: Cell-based sGC Functional Assay (CASA Assay)
sGC is a heme-containing enzyme that converts GTP to secondary messenger cGMP. Increases in cGMP levels affect several physiological processes including vasorelaxation through multiple downstream pathways. […] Heme-dependent activators (HDAs) preferentially activate sGC containing a ferrous heme group. To determine the effect of sGC activators on enzyme activity, the CASA assay was developed to monitor the generation of cGMP in a cell line that stably expresses the heterodimeric sGC protein.
A CHO-K1 cell line stably expressing the sGC a up heterodimer was generated using a standard transfection protocol. CHO-K1 cells were transfected with plasmids pIREShyghsGCα1 and pIRESneo-hsGCβ1 simultaneously using FUGENE reagent. Clones that stably express both subunits were selected with hygromycin and neomycin for weeks. Clone #7 was chosen for the assay and was designated CHO-K1/sGC. CHO-K1/sGC cells were maintained in F-K12 medium containing 10% heat-inactivated Fetal Bovine Serum (FBS), 100 μg/mL penicillin/streptomycin, 0.5 mg/mL hygromycin and 0.25 mg/mL G418. On the day of the assay, cells were harvested in EBSS Assay Buffer (EAB) containing 5 mM MgCl2, 10 mM HEPES (4-(2-hydroxyethyppiperazine-1-ethanesulfonic acid) and 0.05% BSA (bovine serum albumin) and cell density was adjusted to 2×10^6/mL with EAB. IBMX (3-isobutyl-1-methylxanthin, 0.5 mM) was added to inhibit degradation of cGMP. Compounds were diluted from DMSO stock solutions and added to the assay at a final DMSO concentration of 1%. Cells were incubated with compounds in the presence and absence of 10 μM of 1H-(1,2,4)oxadiazolo(4,3-a) quinoxalin-1-one (ODQ) for 1 hr at 37° C. At the end of the incubation period, the reaction was terminated and the cells were lysed. The level of intracellular cGMP was determined using an HTRF-based assay kit (CisBio, 62GM2PEC), which detects the displacement of a fluorescence labeled cGMP from its specific antibody. The amount of cGMP was plotted against compound concentration in PRISM software and the IP and maximum fold induction over DMSO control were derived from the plot.

[1] = test system: Spontaneously hypertensive rats (SHR); assay: Acute Efficacy in Spontaneously Hypertensive Rats (SHR), telemetry blood pressure; assay type: in vivo, rat
Outline: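 Male SHR with aortic telemetry catheters, 14-day recovery, conscious and freely moving; single oral gavage in 10% transcutol/20% Cremophor/70% water. BP sampled 30 s every 10 min, hourly averages minus prior-day vehicle baseline; value is maximum peak SBP decrease at stated mg/kg PO dose.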

Row | Compound | Maximum peak decrease of systolic blood pressure (SBP) in SHR, Category ([1]; single oral dose 0.3 mpk P.O.) | other results
1 | CC1(c2ccccc2)C(=O)Nc2nc(-n3nc(CCC(F)(F)C(F)(F)F)c4cc(Cl)ccc43)nc(N)c21 (centres unmarked) [Example 2, 4-Amino-2-[5-Chloro-3-(3,3,4,4,4-Pentafluorobutyl)-1H-Indazol-1-yl]-5-Methyl-5-Phenyl-5,7-Dihydro-6H-Pyrrolo[2,3-D]Pyrimidin-6-One] | – | Maximum fold induction over DMSO control (sGC; fold over DMSO control): 133; EC50 (sGC; read-out: inflection points (IP)): 114 nM
2 | COc1ccc2c(-c3nc(N)c4c(n3)NC(=O)C4(C)C(=O)NC3CC3)nn(CCC(F)(F)F)c2n1 (centres unmarked) [Example 185, 4-Amino-N-Cyclopropyl-2-[6-Methoxy-1-(3,3,3-Trifluoropropyl)-1H-Pyrazolo[3,4-B]Pyridin-3-yl]-5-Methyl-6-Oxo-6,7-Dihydro-5H-Pyrrolo[2,3-D]Pyrimidine-5-Carboxamide] | – | Maximum SBP reduction ([1]; dose 1.0 mpk): 43 ± 7 mmHg; Maximum peak decrease of systolic blood pressure (SBP) in SHR, Category ([1]; single oral dose 1 mpk P.O.): C (Category C=SBP in SHRs>40 mmHg)
3 | CC1(C(=O)Nc2cccnc2)C(=O)Nc2nc(-c3nn(CCC(F)(F)C(F)(F)F)c4ncccc34)nc(N)c21 (centres unmarked) [Example 234, 4-amino-5-methyl-6-oxo-2-[1-(3,3,4,4,4-pentafluorobutyl)-1H-pyrazolo[3,4-b]pyridin-3-yl]-N-pyridin-3-yl-6,7-dihydro-5H-pyrrolo[2,3-d]pyrimidine-5-carboxamide] | C (Category C=SBP in SHRs>40 mmHg) | –
4 | CC1(C(N)=O)C(=O)Nc2nc(-c3nn(CCC(F)(F)C(F)(F)F)c4ccccc34)nc(N)c21 (centres unmarked) [Example 193, 4-amino-5-methyl-6-oxo-2-[1-(3,3,4,4,4-pentafluorobutyl)-1H-indazol-3-yl]-6,7-dihydro-5H-pyrrolo[2,3-d]pyrimidine-5-carboxamide] | C (Category C=SBP in SHRs>40 mmHg) | –
5 | CC1(CC(=O)NC2CC2)C(=O)Nc2nc(-c3nn(CCC(F)(F)C(F)(F)F)c4cc(Cl)ccc34)nc(N)c21 (centres unmarked) [Example 208, 2-{4-amino-2-[6-chloro-1-(3,3,4,4,4-pentafluorobutyl)-1H-indazol-3-yl]-5-methyl-6-oxo-6,7-dihydro-5H-pyrrolo[2,3-d]pyrimidin-5-yl}-N-cyclopropylacetamide] | – | Maximum peak decrease of systolic blood pressure (SBP) in SHR, Category ([1]; single oral dose 1 mpk P.O.): A (Category A=SBP in SHRs<25 mmHg)
6 | CC1(C(=O)Nc2cccnc2)C(=O)Nc2nc(-c3nn(CCCC(F)(F)F)c4ncccc34)nc(N)c21 (centres unmarked) [Example 227] | B (Category B=SBP in SHRs 25-40 mmHg) | –
7 | CC1(C(=O)NC2CC2)C(=O)Nc2nc(-c3nc(CCC(F)(F)C(F)(F)F)n4ncccc34)nc(N)c21 (centres unmarked) [Example 251, 4-amino-H-cyclopropyl-5-methyl-6-oxo-2-[7-(3,3,4,4,4-pentafluorobutyl)imidazo[1,5-b]pyridazin-5-yl]-6,7-dihydro-5H-pyrrolo[2,3-d]pyrimidine-5-carboxamide] | C (Category C=SBP in SHRs>40 mmHg) | –
8 | CC1(C(=O)NC2CC2)C(=O)Nc2nc(-c3nn(CCC(F)(F)F)c4nc(Cl)ccc34)nc(N)c21 (centres unmarked) [Example 183, 4-Amino-2-[6-Chloro-1-(3,3,3-Trifluoropropyl)-1H-Pyrazolo[3,4-B]Pyridin-3-yl]-N-Cyclopropyl-5-Methyl-6-Oxo-6,7-Dihydro-5H-Pyrrolo[2,3-D]Pyrimidine-5-Carboxamide] | C (Category C=SBP in SHRs>40 mmHg) | –
9 | CNc1nc(-c2nn(CCCC(F)(F)F)c3ncccc23)nc2c1C(C)(C(=O)NC1CC1)C(=O)N2 (centres unmarked) [Example 264, N-cyclopropyl-5-methyl-4-(methylamino)-6-oxo-2-[1-(4,4,4-trifluorobutyl)-1H-pyrazolo[3,4-b]pyridin-3-yl]-6,7-dihydro-5H-pyrrolo[2,3-d]pyrimidine-5-carboxamide] | B (Category B=SBP in SHRs 25-40 mmHg) | –
10 | CCC1(C(N)=O)C(=O)Nc2nc(-c3nn(CCC(F)(F)C(F)(F)F)c4ncccc34)nc(N)c21 (centres unmarked) [Example 241, 4-amino-5-ethyl-6-oxo-2-[1-(3,3,4,4,4-pentafluorobutyl)-1H-pyrazolo[3,4-b]pyridin-3-yl]-6,7-dihydro-5H-pyrrolo[2,3-d]pyrimidine-5-carboxamide] | – | Maximum peak decrease of systolic blood pressure (SBP) in SHR, Category ([1]; single oral dose 1 mpk P.O.): B (Category B=SBP in SHRs 25-40 mmHg)
11 | CC1(C(N)=O)C(=O)Nc2nc(-c3nn(CCC(F)(F)C(F)(F)F)c4ncccc34)nc(N)c21 (centres unmarked) [Example 161, 4-Amino-5-Methyl-6-Oxo-2-[1-(3,3,4,4,4-Pentafluorobutyl)-1H-Pyrazolo[3,4-B]Pyridin-3-yl]-6,7-Dihydro-5H-Pyrrolo[2,3-D]Pyrimidine-5-Carboxamide] | B (Category B=SBP in SHRs 25-40 mmHg) | –
12 | CC1(C(=O)NC2COC2)C(=O)Nc2nc(-c3nn(CCC(F)(F)C(F)(F)F)c4nc(Cl)ccc34)nc(N)c21 (centres unmarked) [Example 230, 4-amino-2-[6-chloro-1-(3,3,4,4,4-pentafluorobutyl)-1H-pyrazolo[3,4-b]pyridin-3-yl]-5-methyl-N-oxetan-3-yl-6-oxo-6,7-dihydro-5H-pyrrolo[2,3-d]pyrimidine-5-carboxamide] | – | Maximum peak decrease of systolic blood pressure (SBP) in SHR, Category ([1]; single oral dose 0.1 mpk P.O.): A (Category A=SBP in SHRs<25 mmHg)
13 | Nc1nc(-c2nn(CCC(F)(F)F)c3ncccc23)nc2c1C(C(=O)NC1CC1)(C1CC1)C(=O)N2 (centres unmarked) [Example 245, 4-amino-N,5-dicyclopropyl-6-oxo-2-[1-(3,3,3-trifluoropropyl)-1H-pyrazolo[3,4-b]pyridin-3-yl]-6,7-dihydro-5H-pyrrolo[2,3-d]pyrimidine-5-carboxamide] | C (Category C=SBP in SHRs>40 mmHg) | –
14 | Nc1nc(-c2nn(CCC(F)(F)C(F)(F)F)c3ncccc23)nc2c1C(C(=O)NC1CC1)(C1CC1)C(=O)N2 (centres unmarked) [Example 242, 4-amino-N,5-dicyclopropyl-6-oxo-2-[1-(3,3,4,4,4-pentafluorobutyl)-1H-pyrazolo(3,4-b]pyridin-3-yl]-6,7-dihydro-5H-pyrrolo[2,3-d]pyrimidine-5-carboxamide] | B (Category B=SBP in SHRs 25-40 mmHg) | –
15 | CC1(c2nnc(CC(F)(F)F)o2)C(=O)Nc2nc(-c3nn(CCC(F)(F)C(F)(F)F)c4ncccc34)nc(N)c21 (centres unmarked) [Example 216, 4-amino-5-methyl-2-[1-(3,3,4,4,4-pentafluorobutyl)-1H-pyrazolo[3,4-b]pyridin-3-yl]-5-[5-(2,2,2-trifluoroethyl)-1,3,4-oxadiazol-2-yl]-5,7-dihydro-6H-pyrrolo[2,3-d]pyrimidin-6-one] | – | Maximum peak decrease of systolic blood pressure (SBP) in SHR, Category ([1]; single oral dose 0.1 mpk P.O.): A (Category A=SBP in SHRs<25 mmHg)
